According to BindingDB's records for PubMed 9655904 (Parke-Davis Pharmaceutical Research, 1998):

Biological target: Fibroblast growth factor receptor 1 (Homo sapiens, UniProt P11362)
Sequence (P11362 whole entry): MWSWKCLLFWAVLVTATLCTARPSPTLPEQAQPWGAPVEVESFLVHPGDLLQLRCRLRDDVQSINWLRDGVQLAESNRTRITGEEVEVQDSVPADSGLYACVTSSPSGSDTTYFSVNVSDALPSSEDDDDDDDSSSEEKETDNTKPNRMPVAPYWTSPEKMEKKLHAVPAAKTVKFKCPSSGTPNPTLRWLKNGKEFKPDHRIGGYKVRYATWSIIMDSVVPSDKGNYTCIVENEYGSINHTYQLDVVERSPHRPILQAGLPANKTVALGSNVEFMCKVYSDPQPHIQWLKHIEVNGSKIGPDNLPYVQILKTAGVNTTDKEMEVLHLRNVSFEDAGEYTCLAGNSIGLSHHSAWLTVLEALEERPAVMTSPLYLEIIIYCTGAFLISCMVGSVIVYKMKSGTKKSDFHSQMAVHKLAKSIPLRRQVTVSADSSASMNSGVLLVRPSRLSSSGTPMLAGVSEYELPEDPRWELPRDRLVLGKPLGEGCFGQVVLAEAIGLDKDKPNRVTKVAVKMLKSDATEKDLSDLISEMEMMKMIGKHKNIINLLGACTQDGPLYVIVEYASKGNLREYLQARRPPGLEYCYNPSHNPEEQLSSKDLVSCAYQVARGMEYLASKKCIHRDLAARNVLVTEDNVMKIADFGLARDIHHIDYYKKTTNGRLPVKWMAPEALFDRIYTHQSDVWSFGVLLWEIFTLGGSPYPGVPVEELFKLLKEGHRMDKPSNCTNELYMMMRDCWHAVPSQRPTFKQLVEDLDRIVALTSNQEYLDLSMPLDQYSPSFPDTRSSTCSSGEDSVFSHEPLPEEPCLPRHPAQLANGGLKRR

- Ki: 45.2 nM
SMILES: COc1cc(OC)cc(-c2cc3cnc(N)nc3nc2NC(=O)NC(C)(C)C)c1 [6-arylpyrido[2,3-d]pyrimidine deriv. 25]
